Measurements as given in article PMC8286840, “Identifying SARS-CoV-2 antiviral compounds by screening for small molecule inhibitors of Nsp3 papain-like protease” (Biochemical Journal, 2021).
Read-outs that look alike come from different tables or passages of the source.

Legend:
[1] = biological target: T1, SARS-CoV-2 PLpro (nsp3 1564–1878) (Severe acute respiratory syndrome coronavirus 2, UniProt P0DTD1); test: biochemical; design: FRET-quenched peptide (Pro3) cleavage by PLpro, 10 min pre-incubation, slope over 20 min, normalised to no-compound control; settings: read-out: % of control remaining
[2] = biological target: T1, SARS-CoV-2 PLpro (nsp3 1564–1878); test: biochemical; design: FRET-quenched peptide (Pro3) cleavage by PLpro, 10 min pre-incubation, slope over 20 min, normalised to no-compound control; settings: read-out: % of control remaining; remark: listed apart in the source

`COC(=O)C1=CO[C@@H](O[C@@H]2O[C@H](CO)[C@@H](O)[C@H](O)[C@H]2O)[C@@H]2C(CO)=CC[C@H]12` [Geniposide] showed a remaining activity at 3.75 µM ([1]; Well no.=5206, high concentration screen) of 97.9% and a remaining activity at 1.25 µM ([2]; Well no.=5206, low concentration screen) of 102%.

`O=C(O)C1=CO[C@@H](O[C@@H]2O[C@H](CO)[C@@H](O)[C@H](O)[C@H]2O)[C@@H]2C(CO)=CC[C@H]12` [Geniposidic acid] was tested, and the remaining activity at 3.75 µM ([1]; Well no.=5236, high concentration screen) was 95.9% and the remaining activity at 1.25 µM ([2]; Well no.=5236, low concentration screen) was 95.4%.

`O=c1c(-c2ccc(O)cc2)coc2cc(O)cc(O)c12` [Genistein - 5,7-Dihydroxy-3-(4-hydroxyphenyl)-4H-1-benzopyran-4-one] showed a remaining activity at 3.75 µM ([1]; Well no.=2342, high concentration screen) of 95.4% and a remaining activity at 1.25 µM ([2]; Well no.=2342, low concentration screen) of 95.4%.

`O=c1c(-c2ccc(O)cc2)coc2cc(O)cc(O)c12` [Genistein] showed a remaining activity at 3.75 µM ([1]; Well no.=573, high concentration screen) of 94%, a remaining activity at 3.75 µM ([1]; Well no.=3315, high concentration screen) of 101% and a remaining activity at 3.75 µM ([1]; Well no.=3947, high concentration screen) of 98.5%. For the same molecule, the remaining activity at 3.75 µM ([1]; Well no.=6492, high concentration screen) was 103%, the remaining activity at 1.25 µM ([2]; Well no.=573, low concentration screen) was 95% and the remaining activity at 1.25 µM ([2]; Well no.=3315, low concentration screen) was 94.8%. It also gave a remaining activity at 1.25 µM ([2]; Well no.=3947, low concentration screen) of 98.6% and a remaining activity at 1.25 µM ([2]; Well no.=6492, low concentration screen) of 103%.

Molecule `O=c1c(-c2ccc(O)cc2)coc2cc(O[C@@H]3O[C@H](CO)[C@@H](O)[C@H](O)[C@H]3O)cc(O)c12` [Genistin] has a remaining activity at 3.75 µM ([1]; Well no.=3213, high concentration screen) of 97.9% and a remaining activity at 1.25 µM ([2]; Well no.=3213, low concentration screen) of 99.7%.

Molecule `O=C(O)c1cc(O)ccc1O` [Gentisic acid] has a remaining activity at 3.75 µM ([1]; Well no.=3955, high concentration screen) of 100% and a remaining activity at 1.25 µM ([2]; Well no.=3955, low concentration screen) of 110%.

`COc1cc(-c2oc3cc(O)ccc3c(=O)c2O)ccc1O` [Geraldol] gave a remaining activity at 3.75 µM ([1]; Well no.=3512, high concentration screen) of 102% and a remaining activity at 1.25 µM ([2]; Well no.=3512, low concentration screen) of 98.4%.

Molecule `CC(=O)CC/C=C(\C)CC/C=C(\C)CC/C=C(\C)CCC=C(C)C` [Geranylgeranylacetone] has a remaining activity at 3.75 µM ([1]; Well no.=6123, high concentration screen) of 95.3% and a remaining activity at 1.25 µM ([2]; Well no.=6123, low concentration screen) of 96.8%.

Work on `C#C[C@]1(O)C=C[C@H]2[C@@H]3CCC4=CC(=O)CC[C@@H]4[C@H]3CC[C@@]21CC` [Gestodene] yielded a remaining activity at 3.75 µM ([1]; Well no.=5260, high concentration screen) of 96.8% and a remaining activity at 1.25 µM ([2]; Well no.=5260, low concentration screen) of 93.5%.

In the case of `C#C[C@]1(O)CC[C@H]2[C@@H]3CCC4=CC(=O)CCC4=C3C=C[C@@]21CC` [Gestrinone], the remaining activity at 3.75 µM ([1]; Well no.=1792, high concentration screen) is reported as 99.3% and the remaining activity at 1.25 µM ([2]; Well no.=1792, low concentration screen) is reported as 101%.

With `Oc1cc(O)c(Cl)cn1` [Gimeracil] the remaining activity at 3.75 µM ([1]; Well no.=5056, high concentration screen) was 104% and the remaining activity at 1.25 µM ([2]; Well no.=5056, low concentration screen) was 101%.

Molecule `CCCCC[C@H](O)CC(=O)CCc1ccc(O)c(OC)c1` [Gingerol] has a remaining activity at 3.75 µM ([1]; Well no.=3319, high concentration screen) of 101% and a remaining activity at 1.25 µM ([2]; Well no.=3319, low concentration screen) of 97%.

With `C[C@@H]1C(=O)O[C@H]2C[C@@]34[C@H]5C[C@@H](C(C)(C)C)[C@]36[C@@H](OC(=O)[C@@H]6O)O[C@@]4(C(=O)O5)[C@]21O` [Ginkgolide A] the remaining activity at 3.75 µM ([1]; Well no.=1908, high concentration screen) was 96.1%, the remaining activity at 3.75 µM ([1]; Well no.=3613, high concentration screen) was 104% and the remaining activity at 1.25 µM ([2]; Well no.=1908, low concentration screen) was 98.7%. The remaining activity at 1.25 µM ([2]; Well no.=3613, low concentration screen) was 106%.

`C[C@@H]1C(=O)O[C@H]2[C@H](O)[C@@]34[C@H]5C[C@@H](C(C)(C)C)[C@]36[C@@H](OC(=O)[C@@H]6O)O[C@@]4(C(=O)O5)[C@@]12O` [Ginkgolide B] gave a remaining activity at 3.75 µM ([1]; Well no.=3321, high concentration screen) of 101%, a remaining activity at 3.75 µM ([1]; Well no.=6484, high concentration screen) of 92.7% and a remaining activity at 1.25 µM ([2]; Well no.=3321, low concentration screen) of 97.9%. For the same molecule, the remaining activity at 1.25 µM ([2]; Well no.=6484, low concentration screen) was 95.6%.

`CC(C)=CCC[C@](C)(O[C@@H]1O[C@H](CO[C@@H]2O[C@@H](CO)[C@H](O)[C@H]2O)[C@@H](O)[C@H](O)[C@H]1O)[C@H]1CC[C@]2(C)[C@@H]1[C@H](O)C[C@@H]1[C@@]3(C)CC[C@H](O[C@@H]4O[C@H](CO)[C@@H](O)[C@H](O)[C@H]4O[C@@H]4O[C@H](CO)[C@@H](O)[C@H](O)[C@H]4O)C(C)(C)[C@@H]3CC[C@]12C` [Ginsenoside Rc] showed a remaining activity at 3.75 µM ([1]; Well no.=6436, high concentration screen) of 92.6% and a remaining activity at 1.25 µM ([2]; Well no.=6436, low concentration screen) of 93.3%.

Molecule `CC(C)=CCC[C@](C)(O)[C@H]1CC[C@]2(C)[C@@H]1[C@H](O)C[C@@H]1[C@@]3(C)CC[C@H](O)C(C)(C)[C@@H]3[C@@H](O[C@@H]3O[C@H](CO)[C@@H](O)[C@H](O)[C@H]3O)C[C@]12C` [Ginsenoside Rh1] has a remaining activity at 3.75 µM ([1]; Well no.=6546, high concentration screen) of 93.7% and a remaining activity at 1.25 µM ([2]; Well no.=6546, low concentration screen) of 98.2%.

`CC(C)=CCC[C@](C)(O)[C@H]1CC[C@]2(C)[C@@H]1[C@H](O)C[C@@H]1[C@@]3(C)CC[C@H](O[C@@H]4O[C@H](CO)[C@@H](O)[C@H](O)[C@H]4O)C(C)(C)[C@@H]3CC[C@]12C` [Ginsenoside Rh2] was tested, and the remaining activity at 3.75 µM ([1]; Well no.=6590, high concentration screen) was 102% and the remaining activity at 1.25 µM ([2]; Well no.=6590, low concentration screen) was 98.4%.

Work on `C[C@]12CC[C@H](O)C[C@H]1CC[C@@H]1[C@@H]2CC[C@]2(C)[C@@H](C3=CC(=O)OC3)[C@@H](O)C[C@]12O` [Gitoxigenin] yielded a remaining activity at 3.75 µM [1] of 104% and a remaining activity at 1.25 µM [2] of 105%.

`CC(C)(C)[C@@H]1NC(=O)O[C@@H]2CCC[C@H]2OC/C=C/C(F)(F)c2nc3ccccc3nc2O[C@@H]2C[C@@H](C(=O)N[C@]3(C(=O)NS(=O)(=O)C4(C)CC4)C[C@H]3C(F)F)N(C2)C1=O` [Glecaprevir] showed a remaining activity at 3.75 µM ([1]; Well no.=8512, high concentration screen) of 93.8% and a remaining activity at 1.25 µM ([2]; Well no.=8512, low concentration screen) of 103%.

Molecule `COc1ccc(Cl)cc1C(=O)NCCc1ccc(S(=O)(=O)NC(=O)NC2CCCCC2)cc1` [Glibenclamide] has a remaining activity at 3.75 µM ([1]; Well no.=475, high concentration screen) of 102% and a remaining activity at 1.25 µM ([2]; Well no.=475, low concentration screen) of 101%.

For `CCC1=C(C)CN(C(=O)NCCc2ccc(S(=O)(=O)NC(=O)N[C@H]3CC[C@H](C)CC3)cc2)C1=O` [Glimepiride], the remaining activity at 3.75 µM ([1]; Well no.=2178, high concentration screen) was 97% and the remaining activity at 1.25 µM ([2]; Well no.=2178, low concentration screen) was 96.4%.

Molecule `CN1C(=O)[C@]23CC4=CC=C[C@H](O)[C@H]4N2C(=O)[C@@]1(CO)SS3` [Gliotoxin] has a remaining activity at 3.75 µM ([1]; Well no.=3323, high concentration screen) of 95.5% and a remaining activity at 1.25 µM ([2]; Well no.=3323, low concentration screen) of 94.1%.

With `Cc1cnc(C(=O)NCCc2ccc(S(=O)(=O)NC(=O)NC3CCCCC3)cc2)cn1` [Glipizide] the remaining activity at 3.75 µM ([1]; Well no.=700, high concentration screen) was 94.3%, the remaining activity at 3.75 µM ([1]; Well no.=1605, high concentration screen) was 93% and the remaining activity at 1.25 µM ([2]; Well no.=700, low concentration screen) was 91.5%. It also gave a remaining activity at 1.25 µM ([2]; Well no.=1605, low concentration screen) of 96.2%.

With `COc1ccc2c(c1)C(=O)N(CCc1ccc(S(=O)(=O)NC(=O)NC3CCCCC3)cc1)C(=O)C2(C)C` [Gliquidone] the remaining activity at 3.75 µM ([1]; Well no.=5369, high concentration screen) was 95.2% and the remaining activity at 1.25 µM ([2]; Well no.=5369, low concentration screen) was 97.2%.

`N[C@@H](CCC(=O)N[C@@H](CS)C(=O)NCC(=O)O)C(=O)O` [Glutathione] gave a remaining activity at 3.75 µM ([1]; Well no.=4049, high concentration screen) of 100% and a remaining activity at 1.25 µM ([2]; Well no.=4049, low concentration screen) of 99.4%.

With `COc1ccc(Cl)cc1C(=O)NCCc1ccc(S(=O)(=O)NC(=O)NC2CCCCC2)cc1` [Glyburide] the remaining activity at 3.75 µM ([1]; Well no.=1806, high concentration screen) was 97.3% and the remaining activity at 1.25 µM ([2]; Well no.=1806, low concentration screen) was 96.5%.

In the case of `NCC(=O)O` [Glycine], the remaining activity at 3.75 µM ([1]; Well no.=7699, high concentration screen) is reported as 108% and the remaining activity at 1.25 µM ([2]; Well no.=7699, low concentration screen) is reported as 106%.

Work on `COc1cc2c(=O)c(-c3ccc(O)cc3)coc2cc1O` [Glycitein] yielded a remaining activity at 3.75 µM ([1]; Well no.=6248, high concentration screen) of 101% and a remaining activity at 1.25 µM ([2]; Well no.=6248, low concentration screen) of 98.2%.

Work on `C[C@H](CCC(=O)NCC(=O)O)[C@H]1CC[C@H]2[C@@H]3[C@H](O)C[C@@H]4C[C@H](O)CC[C@]4(C)[C@H]3CC[C@]12C` [Glycochenodeoxycholic acid] yielded a remaining activity at 3.75 µM ([1]; Well no.=7020, high concentration screen) of 102%, a remaining activity at 1.25 µM ([2]; Well no.=7020, low concentration screen) of 105% and a remaining activity at 1.25 µM ([2]; Well no.=7257, low concentration screen) of 103%.
